Laboratory results from patent US6660872B1, “Method of producing methoxyimino acetic amide” (Bayer Aktiengesellschaft, priority 1999, dated 2003).
Values joined by “and” are separate entries in the source; they are usually repeats but may differ in a detail not shown here. Equal entries are not always repeated.

Assay: determination of the logP-Values by HPLC according to EEC-Direktive 79/831 Annex V. A8
Format: physicochemical
Settings: gradient method, acetonitrile/0,1% aqueous phosphoric acid; for chromatographic logP: HPLC (gradient, acetonitrile/0.1% aqueous phosphoric acid), read-out: log p
Experimental: The determination of the logP-Values was carried out for all examples according to the EEC-Direktive 79/831 Annex V. A8 by HPLC (gradient method, acetonitrile/0,1% aqueous phosphoric acid).

Row | log p | chromatographic logP | Structure (SMILES)
1 | 3.01 |  | CNC(=O)/C(=N/OC)c1ccccc1Oc1ncnc(Oc2ccccc2Cl)c1F (single isomer, unassigned) [XI-2, E-isomer, N-methyl-E-2-[2-(5-fluoro-2′-chlorophenoxypyrimidin-4-yloxy)phenyl]-2-methoxyiminoacetamide]
2 | 2.95 and 2.94 |  | CNC(=O)/C(=N\OC)c1ccccc1Oc1ncnc(Oc2ccccc2Cl)c1F (single isomer, unassigned) [XI-2, Z-isomer, N-methyl-Z-2-[2-(5-fluoro-2′-chlorophenoxypyrimidin-4-yloxy)-phenyl]-2-methoxyiminoacetamide]
3 |  | 1.55 | O=C1Oc2ccccc2/C1=N\O [E-benzofuran-2,3-dione 3-oxime]
4 |  | 0.98 | CNC(=O)/C(=N/OC)c1ccccc1O [N-methyl-E-2-(2-hydroxyphenyl)-2-methoxyimino-acetamide]
5 |  | 1.95 | CNC(=O)/C(=N/OC)c1ccccc1Oc1ncnc(F)c1F [N-methyl-E-2-[2-(5,6-difluoropyrimidin-4-yloxy)-phenyl]-2-methoxyiminoacetamide]
6 |  | 1.29 | CNC(=O)/C(=N\OC)c1ccccc1O [N-methyl-Z-2-(2-hydroxyphenyl)-2-methoxyiminoacetamide]
7 |  | 1.87 | CNC(=O)/C(=N\OC)c1ccccc1Oc1ncnc(F)c1F [N-methyl-Z-2-[2-(5,6-difluoro-pyrimidin-4-yloxy)phenyl]-2-methoxyiminoacetamide]
8 | 3.50 | 3.51 | CNC(=O)/C(=N/OC)c1ccccc1Oc1ncnc(Oc2cccc(Cl)c2C)c1F [XI-1, E-isomer, N-methyl-E-2-[2-(5-fluoro-2′-methyl-3′-chlorophenoxypyrimidin-4-yloxy)phenyl]-2-methoxyiminoacetamide]
9 | 3.43 | 3.44 | CNC(=O)/C(=N\OC)c1ccccc1Oc1ncnc(Oc2cccc(Cl)c2C)c1F [XI-1, Z-isomer, N-methyl-Z-2-[2-(5-fluoro-2′-methyl-3′-chlorophenoxy-pyrimidin-4-yloxy)phenyl]-2-methoxyiminoacetamide]
10 |  | 1.87 | COC(=O)C(=O)c1ccccc1O [methyl 2-hydroxyphenylglyoxylate]
11 |  | 0.95 | COC(=O)/C(=N/O)c1ccccc1O [methyl E-2-(2-hydroxyphenyl)-2-hydroxyimino-acetate]
12 |  | 1.48 | CO/N=C(/C(=O)OC)c1ccccc1O [methyl E-2-(2-hydroxyphenyl)-2-methoxyimino-acetate]
13 | 1.70 | 1.68 | COC(=O)/C(=N\O)c1ccccc1O [methyl Z-2-(2-hydroxyphenyl)-2-hydroxyimino-acetate]
14 | 2.38 and 2.37 | 2.39 | CO/N=C(\C(=O)OC)c1ccccc1O [methyl Z-2-(2-hydroxyphenyl)-2-methoxyimino-acetate]
